Patent publication US20060063784A1, “Method of using substituted pyrazolo [1,5-a] pyrimidines” (priority 2004, published 2006)
Values joined by “and” are separate entries in the source; they are usually repeats but may differ in a detail not shown here. Equal entries are not always repeated. Where two headings read alike, the source gives them in different places.

What was measured:
[1] = tested on: 80S14 (p21-deficient) cells; assay: Cytotoxicity assay using isogenic cell lines: IC50 in 80S14 (p21-deficient) cells, SRB; type: cell-based, human; conditions: SRB
Outline: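 IC50 is the concentration halving proliferation relative to untreated controls, read from SRB absorbance (560 nm) after TCA fixation. Test agent dilutions (5 pM–50 μM or 170 pg/ml–10 μg/ml) were left on p21-deficient 80S14 cells (12,000/well, pre-incubated overnight) for 5 days at 37 °C.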

[2] = tested on: LoVo Colon cell line; assay: Cytotoxicity assay using LoVo colon cell line, SRB; type: cell-based; conditions: 4 days incubation, SRB, read-out: Inhibition of LoVo
Outline: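 Growth inhibition read by sulforhodamine B after 4-day compound exposure at 37 °C. Colon LoVo cells plated at 4000 per well in RPMI/10% FBS a day earlier; doses ranged 5 pM-20 μM or 170 pg/ml-10 μg/ml. IC50 is the concentration halving proliferation versus untreated wells.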

[3] = Homo sapiens, 120 h, 80S14 (p21-deficient) cells, 5 days, class symbols, read-out: IC50 for 80S14
[4] = Homo sapiens, 96 h, Cellular activity in LoVo cell
[5] = 80S14 (p21-deficient) cells, 5 days, class symbols, read-out: IC50 for 80S14
[6] = 80S14 p21-deficient cells, 5 days incubation, read-out: IC50 for 80SI4

| Compound | IC50 [1, 3] [nM] | IC50 [2, 4] [nM] | further results |
| --- | --- | --- | --- |
| O=C(c1cccs1)c1cnn2c(-c3cccs3)ccnc12 [Example 224, 2-Thienyl[7-(2-thienyl)pyrazolo[1,5-a]-pyrimidin-3-yl}-methanone] | 1000 to 10000 | – | melting point: 193 to 195 °C |
| O=C(c1ccco1)c1cnn2c(-c3cccc(NC(=O)C4CC4)c3)ccnc12 [Example 235, N-[3-[3-(2-Furanylcarbonyl)-pyrazolo[1,5-a]pyrimidin-7-yl]phenyl}-cyclopropanecarboxamide] | < 1000 | – | melting point: 227 to 230 °C |
| O=C(c1cccs1)c1cnn2c(-c3cccc(-n4ccnc4)c3)ccnc12 [Example 244, [7-[3-(1H-imidazol-1-yl)phenyl]pyrazolo-[1,5-a]pyrimidin-3-yl]-2-thienyl-methanone] | 1000 to 10000 | – | melting point: 242 to 244 °C |
| O=C(c1cccs1)c1cnn2c(-c3cccc(NC(=O)C4CC4)c3)ccnc12 [Example 249, N-[3-[3-(2-Thienylcarbonyl)pyrazolo[1,5-a]pyrimidin-7-yl]phenyl}-cyclopropanecarboxamide] | < 1000 | – | melting point: 192 to 194 °C |
| Nc1cccc(-c2ccnc3c(C(=O)c4cccs4)cnn23)c1 [Example 262, [7-(3-Aminophenyl)pyrazolo[1,5-a]pyrimidin-3-yl]-2-thienyl-methanone] | 10000 to 50000 | – | melting point: 183 to 184 °C and 183 to 185 °C |
| O=C(c1ccco1)c1cnn2c(-c3cccc(-n4cccc4)c3)ccnc12 [Example 269, 2-Furanyl[7-[3-(1H-pyrrol-1-yl)phenyl]pyrazolo[1,5-a]pyrimidin-3-yl]-methanone] | 1000 to 10000 | – | melting point: 204 to 206 °C |
| Cc1cc(C)cc(-c2cnn3c(-c4cccc(-c5nnn(Cc6cccnc6)n5)c4)ccnc23)c1 [Example 494, 3-(3,5-Dimethylphenyl)-7-{3-[2-(pyridin-3-ylmethyl)-2H-tetrazol-5-yl]phenyl}pyrazolo[1,5-a]pyrimidine] | 1000 to 10000 | 100 to 1000 | – |
| Cc1cc(C)cc(-c2cnn3c(-c4cccc(-c5nnn(Cc6ccccn6)n5)c4)ccnc23)c1 [Example 495, 3-(3,5-Dimethylphenyl)-7-{3-[2-(pyridin-2-ylmethyl)-2H-tetrazol-5-yl]phenyl}pyrazolo[1,5-a]pyrimidine] | 10000 to 50000 | 100 to 1000 | – |
| CCn1nnc(-c2cccc(-c3ccnc4c(-c5cc(C)cc(C)c5)cnn34)c2)n1 [Example 496, 3-(3,5-Dimethylphenyl)-7-[3-(2-ethyl-2H-tetrazol-5-yl)phenyl]pyrazolo[1,5-a]pyrimidine] | 1000 to 10000 | 100 to 1000 | – |
| O=C(c1cccs1)c1cnn2c(-c3cccc(-c4nnn[nH]4)c3)ccnc12 [Example 501, {7-[3-(1H-Tetraazol-5-yl)phenyl]pyrazolo[1,5-a]pyrimidin-3-yl}(thien-2-yl)methanone] | 10000 to 50000 | 1000 to 20000 | – |
| CCn1nnc(-c2cccc(-c3ccnc4c(C(=O)c5cccs5)cnn34)c2)n1 [Example 502, {7-[3-(2-Ethyl-2H-tetraazol-5-yl)phenyl]pyrazolo[1,5-a]pyrimidin-3-yl}(thien-2-yl)methanone] | 1000 to 10000 | 100 to 1000 | – |
| O=C(c1cccs1)c1cnn2c(-c3cccc(-c4nnn(Cc5cccnc5)n4)c3)ccnc12 [Example 503, (7-{3-[2-(Pyridin-3-ylmethyl)-2H-tetraazol-5-yl]phenyl}pyrazolo[1,5-a]pyrimidin-3-yl)(thien-2-yl)methanone] | < 1000 | 100 to 1000 | – |
| CC(C)Cn1nnc(-c2cccc(-c3ccnc4c(C(=O)c5cccs5)cnn34)c2)n1 [Example 504, {7-[3-(2-Isobutyl-2H-tetraazol-5-yl)phenyl]pyrazolo[1,5-a]pyrimidin-3-yl}(thien-2-yl)methanone] | < 1000 | 100 to 1000 | – |
| O=C(c1cccs1)c1cnn2c(-c3cccc(-c4nnn(CC5CCC5)n4)c3)ccnc12 [Example 505, (7-{3-[2-(Cyclobutylmethyl)-2H-tetraazol-5-yl]phenyl}pyrazolo[1,5-a]pyrimidin-3-yl)(thien-2-yl)methanone] | < 1000 | < 100 | – |
| CCCCn1nnc(-c2cccc(-c3ccnc4c(C(=O)c5cccs5)cnn34)c2)n1 [Example 506, {7-[3-(2-Butyl-2H-tetraazol-5-yl)phenyl]pyrazolo[1,5-a]pyrimidin-3-yl) (thien-2-yl)methanone] | < 1000 | < 100 | – |
| O=C(c1cccs1)c1cnn2c(-c3cccc(-c4nnn(CCN5CCOCC5)n4)c3)ccnc12 [Example 507, (7-{3-[2-(2-Morpholin-4-ylethyl)-2H-tetraazol-5-yl]phenyl}pyrazolo[1,5-a]pyrimidin-3-yl)(thien-2-yl)methanone] | 1000 to 10000 | 100 to 1000 | – |
| O=C(c1cccs1)c1cnn2c(-c3cccc(-c4nnnn4CC4CCC4)c3)ccnc12 [Example 508, (7-{3-[1-(Cyclobutylmethyl)-1H-tetraazol-5-yl]phenyl}pyrazolo[1,5-a]pyrimidin-3-yl)(thien-2-yl)methanone] | 10000 to 50000 | 1000 to 20000 | – |

| Compound | IC50 [1, 3] [nM] | IC50 [2, 4] [nM] | further results |
| --- | --- | --- | --- |
| O=C(c1cccs1)c1cnn2c(-c3cccc(-c4nnn(Cc5ccccn5)n4)c3)ccnc12 [Example 509, (7-{3-[2-(Pyridin-2-ylmethyl)-2H-tetraazol-5-yl]phenyl}pyrazolo[1,5-a]pyrimidin-3-yl)(thien-2-yl)methanone] | < 1000 | 100 to 1000 | – |
| O=C(c1cccs1)c1cnn2c(-c3cccc(-c4nnn(Cc5ccncc5)n4)c3)ccnc12 [Example 510, (7-{3-[2-(Pyridin-4-ylmethyl)-2H-tetraazol-5-yl]phenyl}pyrazolo[1,5-a]pyrimidin-3-yl)(thien-2-yl)methanone] | < 1000 | < 100 | – |
| O=C(c1cccs1)c1cnn2c(-c3cccc(-c4nnn(CCN5CCCC5)n4)c3)ccnc12 [Example 511, (7-{3-[2-(2-Pyrrolidin-1-ylethyl)-2H-tetraazol-5-yl]phenyl}pyrazolo[1,5-a]pyrimidin-3-yl)(thien-2-yl)methanone] | < 1000 | 100 to 1000 | – |
| O=C(c1cccs1)c1cnn2c(-c3cccc(-c4nnn(CCN5CCCCC5)n4)c3)ccnc12 [Example 512, (7-{3-[2-(2-Piperidin-1-ylethyl)-2H-tetraazol-5-yl]phenyl}pyrazolo[1,5-a]pyrimidin-3-yl)(thien-2-yl)methanone] | 1000 to 10000 | 100 to 1000 | – |
| O=C(c1cccs1)c1cnn2c(-c3cccc(-c4nnn(CCO)n4)c3)ccnc12 [Example 513, (7-{3-[2-(2-Hydroxyethyl)-2H-tetraazol-5-yl]phenyl}pyrazolo[1,5-a]pyrimidin-3-yl)(thien-2-yl)methanone] | 1000 to 10000 | 100 to 1000 | – |
| O=C(c1cccs1)c1cnn2c(-c3cccc(-c4ccn(CC5CCC5)n4)c3)ccnc12 [Example 515, (7-{3-[1-(Cyclobutylmethyl)-1H-pyrazol-3-yl]phenyl}pyrazolo[1,5-a]pyrimidin-3-yl)(thien-2-yl)methanone] | < 1000 | < 100 | – |
| O=C(c1cccs1)c1cnn2c(-c3cccc(-c4ccn(Cc5ccccn5)n4)c3)ccnc12 [Example 517, (7-{3-[1-(Pyridin-2-ylmethyl)-1H-pyrazol-3-yl]phenyl}pyrazolo[1,5-a]pyrimidin-3-yl)(thien-2-yl)methanone] | < 1000 | 100 to 1000 | – |
| O=C(c1cccs1)c1cnn2c(-c3cccc(-c4ccn(CCN5CCCC5)n4)c3)ccnc12 [Example 520, (7-{3-[1-(2-Pyrrolidin-1-ylethyl)-1H-pyrazol-3-yl]phenyl}pyrazolo[1,5-a]pyrimidin-3-yl)(thien-2-yl)methanone] | 1000 to 10000 | 100 to 1000 | – |
| (7-{3-[1-(Pyridin-2-ylmethyl)-1H-pyrazol-3-yl]phenyl}pyrazolo[1,5-a]pyrimidin-3-yl)(thien-2-yl)methanone [Example 516] | – | – | IC50 [1, 5]: < 1000 nM; IC50 ([2]; Cellular activity in LoVo cell): < 100 nM |
| N-{3-[3-(thien-2-ylcarbonyl)pyrazolo[1,5-a]pyrimidin-7-ylphenyl}morpholne-4-carboxamide [Example 157] | – | – | IC50 [1, 6]: 1000 to 10000 nM; IC50 ([2]; LoVo colon cells): 100 to 1000 nM |
| N-{3-[6-methyl-3-(thien-2-ylcarbonyl)pyrazolo[1,5-a]pyrimidin-7-yl]phenyl}cycopropanecarboxamide [Example 217] | – | – | IC50 [1, 6]: 10000 to 50000 nM; IC50 ([2]; LoVo colon cells): < 100 nM |
| N-{4-Chloro-3-[3-(thien-2-ylcarbonyl)pyrazolo[1,5-a]yrimidin-7-yl]phenyl}-N′-isopropylthiourea [Example 340] | – | – | IC50 [1, 5]: 1000 to 10000 nM; IC50 ([2]; Cellular activity in LoVo cell): 100 to 1000 nM |
| Thienylcarbonyl)pyrazolo[1,5-a]pyrimidin-7-yl]phenyl}cyclobutanecarboxamide [Example 275] | – | – | IC50 [1, 5]: < 1000 nM; IC50 ([2]; Cellular activity in LoVo cell): < 100 nM |
| [7-[3-(2-Methyl-1H-imidazol-1-yl)phenyl]-pyrazolo[1,5-a]pyrimidin-3-vy]-2-thienyl-methanone [Example 245] | – | – | IC50 [1, 5]: 10000 to 50000 nM; IC50 ([2]; Cellular activity in LoVo cell): 1000 to 20000 nM |
| tert-Butyl 4-[2-oxo-2-({3-[3-(thien-2-ylcarbonyl)pyrazolo[1.5-a]pyrimidin-7-yl]phenyl}amino)ethyl]piperidine-1-carboxylate [Example 392] | – | – | IC50 [1, 5]: < 1000 nM; IC50 ([2]; Cellular activity in LoVo cell): < 100 nM |
| {7-[3-(1-Ethyl-1H-pyrazol-3-yl)phenyl]pyrazolo[1,5-a]pyrimidin-3-yl (thien-2-yl)methanone [Example 518] | – | – | IC50 [1, 5]: < 1000 nM; IC50 ([2]; Cellular activity in LoVo cell): < 100 nM |
